In PMC6199744, “Development of Chemical Proteomics for the Folateome and Analysis of the Kinetoplastid Folateome” (ACS Infectious Diseases, 2018):
Where two headings read alike, the source gives them in different places.

How the values were obtained:
Assay type in all cases: binding
[1] = molecular target: T1, HeLa cell extract proteins (Homo sapiens, UniProt Q7L1Q6)
T1 construct: endogenous in cells; host or cells: HeLa cell extract
T1 sequence (Q7L1Q6 1-419): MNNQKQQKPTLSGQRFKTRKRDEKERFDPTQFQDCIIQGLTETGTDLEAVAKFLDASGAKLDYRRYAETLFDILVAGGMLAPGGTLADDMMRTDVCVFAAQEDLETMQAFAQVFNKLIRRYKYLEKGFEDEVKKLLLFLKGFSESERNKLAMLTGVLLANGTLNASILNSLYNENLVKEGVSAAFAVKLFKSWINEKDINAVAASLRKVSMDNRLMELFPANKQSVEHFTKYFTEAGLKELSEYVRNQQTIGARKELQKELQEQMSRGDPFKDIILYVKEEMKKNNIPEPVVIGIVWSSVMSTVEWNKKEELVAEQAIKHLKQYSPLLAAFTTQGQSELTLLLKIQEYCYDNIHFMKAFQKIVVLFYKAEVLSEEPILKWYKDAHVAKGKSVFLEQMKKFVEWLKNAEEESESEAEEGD

[2] = molecular target: T2, HeLa cell extract proteins (Homo sapiens, UniProt Q15029)
T2 construct: endogenous in cells; host or cells: HeLa cell extract
T2 sequence (Q15029 1-972): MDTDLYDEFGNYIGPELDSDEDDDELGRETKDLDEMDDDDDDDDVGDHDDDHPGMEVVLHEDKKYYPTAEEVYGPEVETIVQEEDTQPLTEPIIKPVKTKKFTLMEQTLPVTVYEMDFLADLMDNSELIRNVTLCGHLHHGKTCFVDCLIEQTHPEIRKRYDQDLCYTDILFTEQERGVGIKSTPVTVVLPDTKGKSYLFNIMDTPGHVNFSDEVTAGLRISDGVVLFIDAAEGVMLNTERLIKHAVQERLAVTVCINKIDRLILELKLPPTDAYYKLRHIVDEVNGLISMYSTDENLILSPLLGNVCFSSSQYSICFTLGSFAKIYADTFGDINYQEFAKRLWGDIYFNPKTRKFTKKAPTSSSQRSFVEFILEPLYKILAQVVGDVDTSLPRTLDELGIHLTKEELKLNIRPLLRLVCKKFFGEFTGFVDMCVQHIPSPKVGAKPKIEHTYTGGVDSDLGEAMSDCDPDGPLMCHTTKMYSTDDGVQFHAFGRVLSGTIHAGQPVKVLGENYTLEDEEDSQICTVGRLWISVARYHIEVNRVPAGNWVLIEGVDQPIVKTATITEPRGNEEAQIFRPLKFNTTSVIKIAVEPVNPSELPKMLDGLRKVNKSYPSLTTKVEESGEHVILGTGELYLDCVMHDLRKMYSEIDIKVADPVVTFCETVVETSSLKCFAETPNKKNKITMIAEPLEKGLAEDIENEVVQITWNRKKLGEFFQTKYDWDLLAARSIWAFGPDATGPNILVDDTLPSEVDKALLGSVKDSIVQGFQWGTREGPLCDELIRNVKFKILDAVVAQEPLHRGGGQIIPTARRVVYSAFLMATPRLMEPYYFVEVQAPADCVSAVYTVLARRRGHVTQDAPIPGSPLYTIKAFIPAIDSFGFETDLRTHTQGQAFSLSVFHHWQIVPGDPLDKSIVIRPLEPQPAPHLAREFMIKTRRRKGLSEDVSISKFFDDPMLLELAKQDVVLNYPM

[3] = molecular target: T3, HeLa cell extract proteins (Homo sapiens, UniProt Q9H2U2)
T3 construct: endogenous in cells; host or cells: HeLa cell extract
T3 sequence (Q9H2U2 33-334): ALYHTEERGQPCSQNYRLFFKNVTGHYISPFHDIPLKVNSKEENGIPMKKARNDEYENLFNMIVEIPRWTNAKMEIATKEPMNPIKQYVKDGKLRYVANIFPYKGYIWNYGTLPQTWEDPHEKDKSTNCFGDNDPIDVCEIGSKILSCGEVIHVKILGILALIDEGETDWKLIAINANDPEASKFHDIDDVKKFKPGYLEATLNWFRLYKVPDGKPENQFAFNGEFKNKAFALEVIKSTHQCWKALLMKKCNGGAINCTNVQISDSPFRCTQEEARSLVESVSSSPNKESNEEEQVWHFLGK

[4] = molecular target: T4, HeLa cell extract proteins (Homo sapiens, UniProt O15427)
T4 construct: endogenous in cells; host or cells: HeLa cell extract
T4 sequence (O15427 1-465): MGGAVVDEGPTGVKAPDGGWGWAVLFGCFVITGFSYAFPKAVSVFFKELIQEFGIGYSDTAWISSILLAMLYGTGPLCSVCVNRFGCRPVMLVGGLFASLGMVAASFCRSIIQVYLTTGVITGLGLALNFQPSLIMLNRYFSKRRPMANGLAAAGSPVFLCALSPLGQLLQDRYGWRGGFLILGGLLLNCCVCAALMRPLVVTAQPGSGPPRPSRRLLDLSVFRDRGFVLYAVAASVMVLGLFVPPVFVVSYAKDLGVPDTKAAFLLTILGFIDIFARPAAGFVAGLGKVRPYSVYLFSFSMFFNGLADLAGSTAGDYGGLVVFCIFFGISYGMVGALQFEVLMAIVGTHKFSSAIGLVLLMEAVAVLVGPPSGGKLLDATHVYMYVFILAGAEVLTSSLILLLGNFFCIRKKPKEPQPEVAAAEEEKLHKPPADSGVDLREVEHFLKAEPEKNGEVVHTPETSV

[5] = molecular target: T5, HeLa cell extract proteins (Homo sapiens, UniProt P13639)
T5 construct: endogenous in cells; host or cells: HeLa cell extract

[6] = molecular target: T6, HeLa cell extract proteins (Homo sapiens, UniProt Q9BT22)
T6 construct: endogenous in cells; host or cells: HeLa cell extract
T6 sequence (Q9BT22 1-464): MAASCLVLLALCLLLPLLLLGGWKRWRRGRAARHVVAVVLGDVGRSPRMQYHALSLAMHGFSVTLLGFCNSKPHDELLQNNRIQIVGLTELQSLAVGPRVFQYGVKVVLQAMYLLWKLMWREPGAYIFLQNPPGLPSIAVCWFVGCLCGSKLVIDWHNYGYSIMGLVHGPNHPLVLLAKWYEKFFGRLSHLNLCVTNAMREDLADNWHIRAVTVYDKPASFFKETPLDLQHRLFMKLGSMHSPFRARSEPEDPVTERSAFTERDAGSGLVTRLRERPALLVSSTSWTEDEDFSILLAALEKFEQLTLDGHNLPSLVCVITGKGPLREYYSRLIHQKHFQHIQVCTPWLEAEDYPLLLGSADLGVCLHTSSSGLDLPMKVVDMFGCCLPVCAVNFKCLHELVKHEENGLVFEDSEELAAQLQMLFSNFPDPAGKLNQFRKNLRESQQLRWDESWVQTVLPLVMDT

[7] = HeLa, protein EEF2 (ELONGATION FACTOR 2.)

SMILES	fold changes relative to vehicle control ([1]; HeLa, protein BZW1)	fold changes relative to vehicle control ([2]; HeLa, protein EFTUD2)	fold changes relative to vehicle control ([3]; HeLa, protein PPA2)	fold changes relative to vehicle control ([4]; HeLa, protein SLC16A3)	fold changes relative to vehicle control ([5]; HeLa, protein EEF2)	fold changes relative to vehicle control ([6]; HeLa, protein ALG1)	fold changes relative to vehicle control ([1]; protein BZW1, HeLa)	fold changes relative to vehicle control ([2]; protein EFTUD2, HeLa)	fold changes relative to vehicle control ([3]; protein PPA2, HeLa)	fold changes relative to vehicle control ([6]; captured protein ALG1, HeLa)	also measured
Nc1nc2c(c(=O)[nH]1)N(C=O)C(CNc1ccc(C(=O)N[C@@H](CCC(=O)O)C(=O)O)cc1)CN2 (stereo partly drawn) [LEU, leucovorin]	1.01	0.97	1.16	0.96	1.06	0.85	–	–	–	–	–
Nc1nc2[nH]cc(CCc3ccc(C(=O)N[C@@H](CCC(=O)O)C(=O)O)cc3)c2c(=O)[nH]1 [PTX, pemetrexed]	–	–	–	–	–	–	–	–	–	–	fold changes relative to vehicle control [1]: 1.09; fold changes relative to vehicle control [2]: 0.9; fold changes relative to vehicle control [3]: 1.05; fold changes relative to vehicle control [4]: 0.85; fold changes relative to vehicle control [5]: 1.2; fold changes relative to vehicle control [6]: 0.81
CCCCCCOc1ccc(Cc2cnc(N)nc2N)cc1 [compound 1]	–	–	–	0.83	–	–	1.09	1.11	1.04	0.88	fold changes relative to vehicle control [5, 7]: 1.33 fold
CCCCCCOc1cccc(Cc2cnc(N)nc2N)c1 [compound 2]	–	–	–	0.94	–	–	1.52	1.4	1.59	0.91	fold changes relative to vehicle control [5, 7]: 2.22 fold
Nc1nc2cccc(-c3ccccc3)c2n1Cc1ccc(Cl)c(Cl)c1 [compound 3]	–	–	–	0.94	–	–	0.91	0.99	0.97	1.05	fold changes relative to vehicle control ([5]; HeLa, protein EEF2 ([…] 2.)): 0.97 fold
NCCOCCOCC(=O)Nc1nc2ncc(CNc3ccc(C(=O)NC(CCC(=O)O)C(=O)O)cc3)nc2c(=O)[nH]1 (stereo not drawn) [compound 6]	1.21	1.04	1.24	0.85	1.35	0.93	–	–	–	–	–
NCCCNc1ccc(C(=O)NC(CCC(=O)O)C(=O)O)cc1 (stereo not drawn) [compound 7]	0.98	0.91	1.02	0.94	1.04	0.99	–	–	–	–	–
